From patent US20030232862A1 (priority 2002, published 2003) come the findings set out here.

Each structure is given as a SMILES string.

Data set [1] has as its target cGMP PDE purified from human colon HT-29 cultured tumor cells (Homo sapiens, UniProt O76074). Put plainly: cGMP PDE inhibition assay. Type of data set: biochemical.
Data set [2] concerns HT-29 colon adenocarcinoma cells. Put plainly: Apoptosis by DNA fragmentation assay in HT-29 cells. Further: key: −: Not active; +: Slightly active; + +: Moderately active; + + +: Strongly active; + + + +: Highly active. The format is cell-based, human. To be noted: Table 9 qualitative profile.
In a further data set the test system is HT-29 cells. Nature of the data set: Apoptosis and necrosis by morphology (acridine orange/ethidium bromide) in HT-29 cells. The format is cell-based, human. As to conditions: HT-29, six days. The source says: Apoptosis occurs naturally during normal tissue turnover and during embryonic development of organs and limbs. Apoptosis also is induced by cytotoxic T-lymphocytes and natural killer cells, by ionizing radiation and by certain chemotherapeutic drugs. Inappropriate regulation of apoptosis is thought to play an important role in many pathological conditions including cancer, AIDS, or Alzheimer's disease, etc. Compounds can be screened for induction of apoptosis using cultures of tumor cells maintained under conditions as described above. Treatment of cells with test compounds involves either pre- or post-confluent cultures and treatment for two to seven days at various concentrations. Apoptotic cells are measured in both the attached and “floating” compartments of the cultures. […]
Reference compounds and test compounds were analyzed for their novel PDE inhibitory activity in accordance with the protocols for the assay, supra. […] Apoptotic and necrotic cell death was determined previously (Duke and Cohen, In: Current Protocols in Immunology, 3.17.1 - 3.17.16, New York, John Wiley and Sons, 1992). […]
The apoptosis inducing activity for a series of phosphodiesterase inhibitors was determined. […] Apoptosis and necrosis were determined morphologically after acridine orange and ethidium bromide labeling in accordance with the assay described, supra. […]

For data set [3], the system named is premalignant lesions in mouse mammary gland organ culture. Nature of the data set: Mammary gland organ culture model. On mammary gland organ culture: key: −: Not active; +: Slightly active; + +: Moderately active; + + +: Strongly active; + + + +: Highly active. The format is cell-based. An excerpt: Test compounds identified by the above methods can be tested for antineoplastic activity by their ability to inhibit the incidence of pre-neoplastic lesions in a mammary gland organ culture system. This mouse mammary gland organ culture technique has been successfully used by other investigators to study the effects of known antineoplastic agents such as certain NSAIDs, retinoids, tamoxifen, selenium, and certain natural products, and is useful for validation of the screening method of the present invention.
For example, female BALB/c mice can be treated with a combination of estradiol and progesterone daily, in order to prime the glands to be responsive to hormones in vitro. The animals are sacrificed, and thoracic mammary glands are excised aseptically and incubated for ten days in growth media supplemented with insulin, prolactin, hydrocortisone, and aldosterone. DMBA (7,12-dimethylbenz(a)anthracene) is added to medium to induce the formation of premalignant lesions. Fully developed glands are then deprived of prolactin, hydrocortisone, and aldosterone, resulting in the regression of the glands but not the pre-malignant lesions.
The test compound is dissolved in DMSO and added to the culture media for the duration of the culture period. At the end of the culture period, the glands are fixed in 10% formalin, stained with alum carmine, and mounted on glass slides. The incidence of forming mammary lesions is the ratio of the glands with mammary lesions to […]. The incidence of mammary lesions in test compound treated glands is compared with that of the untreated glands.
The extent of the area occupied by the mammary lesions can be quantitated by projecting an image of the gland onto a digitation pad. The area covered by the gland is traced on the pad and considered as 100% of the area. The space covered by each of the non-regressed structures is also outlined on the digitization pad and quantitated by the computer.
Mammary gland organ culture experiment were performed as previously described (Mehta and Moon, Cancer Research, 46: 5832-5835, 1986).

Data set [4] is described as follows: Clinical tolerability of exisulind. Type of data set: in vivo. An excerpt:
This effect is reversible, and liver enzymes return to normal levels when the administered dose of exisulind returns to the traditionally recommended level or when treatment is discontinued. The purpose of using combinations is to allow a lower dose of each to be used.

Consider `CC1=C(CC(=O)O)c2cc(F)ccc2/C1=C\c1ccc(S(C)(=O)=O)cc1` [Exisulind, 5-fluoro-2-methyl-1-(p-methylsulfonylbenzylidene)-3-indenylacetic acid], for which the “PDE Inhibition” value in data set [1] (Table 9 qualitative profile) is “+ +”. The inhibition at 10 µM in data set [1] (read-out: % Inhibition at 10 μM (cGMP PDE), 10 μM) was 39%. The IC50 in data set [1] (read-out: IC50 for inhibition of cGMP PDE) came to 56 µM. Besides, the Apoptosis entry in data set [2] is “+ +”. Besides, in the data set on HT-29 cells, the “apoptotic and necrotic cell death” value is “capable of causing apoptotic cell death without inducing necrosis”. In data set [3] (FIG. 17), the “inhibition of formation of premalignant lesions” value was “effectively inhibit”. In data set [3] (Table 9 qualitative profile), the “Mammary Gland Organ Culture” value is recorded as “+ + +”. Besides, the “side effects at recommended dose” value in data set [4] (300-400 mg/day) is given as “no clinically significant side effects”. The “effect at doses higher than the recommended therapeutic levels” value in data set [4] (reversible) is “elevated levels of liver enzymes”.

One may read the inhibition as how much of the control response was suppressed. As a reminder, the IC50 is the concentration needed to halve the response being measured.
